Source: patent US12371464B2, “Polypeptides and uses thereof” (MEDIMMUNE LIMITED, priority 2020, dated 2025)
Numbered stars: 1 amine (or outer) side, 2 acyl side, 3 side chain; on linkers, the order of the positions; unused ones are H or OH. Bridge positions count the residues as written; N and C are the ends. Square brackets hold non-standard residues; d marks the D form. Side chains are listed from the residue outwards. Ends that are not written are not given here. Peptide text beside a SMILES is read from it. * marks the point of attachment. C20 diacid = O=C(O)CCCCCCCCCCCCCCCCCCC(=O)*; C18 diacid = O=C(O)CCCCCCCCCCCCCCCCC(=O)*; γGlu = O=C(O)[C@H](CCC(=O)[*:2])N[*:1]; αMeF = C[C@](N)(Cc1ccccc1)C(=O)O; Dab = NCC[C@H](N)C(=O)O; Aib = CC(C)(N)C(=O)O

Legend:
[1] = target: T1, human calcitonin receptor (hCTR) (Homo sapiens, UniProt P30988); assay: cAMP production in 1321N1 cells with stable recombinant expression of human calcitonin receptor (hCTR); type: cell-based; details: 1321N1 cells expressing human calcitonin receptor
T1 construct: expressed in transfected cells
T1 sequence (P30988 25-474): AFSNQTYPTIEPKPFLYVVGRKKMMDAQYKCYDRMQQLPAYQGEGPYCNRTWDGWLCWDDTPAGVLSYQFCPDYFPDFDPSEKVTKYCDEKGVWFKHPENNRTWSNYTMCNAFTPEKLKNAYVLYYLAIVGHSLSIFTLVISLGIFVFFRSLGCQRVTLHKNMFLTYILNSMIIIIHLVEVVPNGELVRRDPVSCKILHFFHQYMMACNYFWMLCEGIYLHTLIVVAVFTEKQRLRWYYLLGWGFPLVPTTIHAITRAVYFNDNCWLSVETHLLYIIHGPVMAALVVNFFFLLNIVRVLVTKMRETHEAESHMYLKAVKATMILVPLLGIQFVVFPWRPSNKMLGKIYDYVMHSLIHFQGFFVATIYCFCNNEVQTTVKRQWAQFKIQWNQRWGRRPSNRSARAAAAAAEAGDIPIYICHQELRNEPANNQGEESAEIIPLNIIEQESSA
Experimental: (§1) The functional activities of lipidated pramlintide analogue peptides, such as cAMP production, were tested in 1321N1 cell line with stable recombinant expression of human calcitonin receptor (hCTR) or human amylin receptor (calcitonin receptor co-expressed with receptor activity modifying protein, RAMP3) (hAMYR3) or HEK cells with stable recombinant expression of rat calcitonin receptor (rat CTR) or rat amylin receptor (calcitonin receptor co-expressed with receptor activity modifying protein, RAMP3) (Rat AMYR3).
(§2) Cryopreserved cell stock was thawed rapidly in a water-bath, suspended in assay buffer (0.1% BSA (Sigma #A3059) in HBSS (Sigma #H8264) with 25 mM HEPES, pH 7.4 and containing 0.5 mM IB MX (Sigma #17018)) and spun at 240×g for 5 minutes. Cells were re-suspended in assay buffer at a batch-dependent optimized concentration (e.g. hCTR cells at 0.125×10^5 cells/mL, hAMYR3 cells at 0.125×10^5 cells/mL, rat CTR cells at 1×10^5 cells/mL, rat AMYR3 at 2×10^5 cells/mL).
(§3) The test peptide stock was prepared in DMSO and diluted in assay buffer to reach stated concentrations and transferred in duplicates into a 384-black shallow well microtitre assay plate (Corning #3676). Cells were added to the assay plate, incubated at room temperature for 30 minutes and the CAMP level measured using CAMP dynamic 2 HTRF kit (Cisbio, Cat #62AM4PEJ), following the two step protocol as per manufacturer's recommendations. The plates were read on an Envision (Perkin Elmer) using excitation wavelength of 320 nm and emission wavelengths of 620 nm & 665 nm.
(§4) Data was transformed to % Delta F as described in the manufacturer's guidelines and analyzed as percent activation of maximal amylin or calcitonin effect by 4-parameter logistic fit to determine EC50 values. The selectivity of a peptide to hAMYR vs hCTR is defined as a ratio of EC50 values at the two receptors.

[2] = target: T2, human amylin receptor (calcitonin receptor co-expressed with receptor activity modifying protein, RAMP3) (hAMYR3) (Homo sapiens, UniProt O60896+P30988); assay: cAMP production in 1321N1 cells with stable recombinant expression of human amylin receptor (hAMYR3); type: cell-based; details: for Ratio (selectivity hAMYR vs hCTR, ratio of EC50 values at the two receptors): EC50 hCTR / EC50 hAMYR3; for EC50: cAMP production, 1321N1 cells expressing human amylin3 receptor
T2 construct: expressed in transfected cells
T2 sequence (P30988 25-474): T1 sequence (P30988 25-474)
T2 sequence (O60896 24-148 partner): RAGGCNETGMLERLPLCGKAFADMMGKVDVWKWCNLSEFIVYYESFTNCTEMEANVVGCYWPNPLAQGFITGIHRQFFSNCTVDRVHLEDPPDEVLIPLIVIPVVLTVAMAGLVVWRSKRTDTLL
Experimental: as §1, §2, §3, §4

[3] = cited from earlier work

EC50 [1] | EC50 [2] | Compound | Ratio (selectivity hAMYR vs hCTR, ratio of EC50 values at the two receptors) [2] | terminal half-life of amylin in rats [3]
1.39 nM | 0.211 nM | CC[C@H](C)[C@H](NC(=O)[C@@H]1CCCN1C(=O)CNC(=O)[C@H](Cc1ccccc1)NC(=O)[C@H](CC(N)=O)NC(=O)C(C)(C)NC(=O)[C@H](CO)NC(=O)[C@H](CO)NC(=O)[C@H](Cc1c[nH]cn1)NC(=O)[C@@H](NC(=O)[C@H](CC(C)C)NC(=O)[C@H](Cc1ccccc1)NC(=O)[C@H](CC(N)=O)NC(=O)[C@H](C)NC(=O)[C@H](CC(C)C)NC(=O)[C@H](CCCNC(=N)N)NC(=O)[C@H](CCC(N)=O)NC(=O)[C@@H](NC(=O)[C@H](C)NC(=O)[C@@H]1CSSC[C@H](NC(=O)[C@H](CCCCN)NC(=O)CC[C@H](NC(=O)CCCCCCCCCCCCCCCCC(=O)O)C(=O)O)C(=O)N[C@@H](CC(N)=O)C(=O)N[C@@H]([C@@H](C)O)C(=O)N[C@@H](C)C(=O)N[C@@H]([C@@H](C)O)C(=O)N1)[C@@H](C)O)C(C)C)C(=O)N[C@@H](CC(C)C)C(=O)N1CCC[C@H]1C(=O)N1CCC[C@H]1C(=O)N[C@H](C(=O)N[C@@H](CCCNC(=N)N)C(=O)N[C@H](C(=O)NCC(=O)N[C@@H](CO)C(=O)N[C@@H](CC(N)=O)C(=O)N[C@H](C(=O)N[C@@H](Cc1ccc(O)cc1)C(N)=O)[C@@H](C)O)C(C)C)[C@@H](C)O [Peptide 71, C18diacid-γE-K[CNTATC]ATQRLANFLVHSS(Aib)NFGPILPPTRVGSNTY-amide] ({C18 diacid-γGlu}-KCNTATCATQRLANFLVHSS[Aib]NFGPILPPTRVGSNTY-NH2; disulfide 2-7) | 7 | –
10.7 nM | 1.77 nM | CC[C@H](C)[C@H](NC(=O)[C@H](C)NC(=O)[C@@H]1CCCN1C(=O)[C@H](Cc1ccccc1)NC(=O)[C@H](CC(N)=O)NC(=O)[C@@H]1CCCN1C(=O)[C@H](CO)NC(=O)[C@H](CO)NC(=O)[C@H](Cc1c[nH]cn1)NC(=O)[C@@H](NC(=O)[C@H](CC(C)C)NC(=O)[C@H](Cc1c[nH]c2ccccc12)NC(=O)[C@H](CC(N)=O)NC(=O)[C@H](C)NC(=O)[C@H](CC(C)C)NC(=O)[C@H](CCCNC(=N)N)NC(=O)[C@H](CCC(N)=O)NC(=O)[C@@H](NC(=O)[C@H](C)NC(=O)[C@@H]1CSSC[C@H](NC(=O)[C@@H](N)CCCCNC(=O)CC[C@H](NC(=O)CC[C@H](NC(=O)CCCCCCCCCCCCCCCCCCC(=O)O)C(=O)O)C(=O)O)C(=O)N[C@@H](CC(N)=O)C(=O)N[C@@H](C)C(=O)N[C@@H](C)C(=O)N[C@@H]([C@@H](C)O)C(=O)N1)[C@@H](C)O)C(C)C)C(=O)N[C@@H](CC(C)C)C(=O)N[C@@H](CO)C(=O)N1CCC[C@H]1C(=O)N[C@H](C(=O)N[C@@H](CC(N)=O)C(=O)N[C@H](C(=O)NCC(=O)N[C@@H](CO)C(=O)N[C@@H](CC(N)=O)C(=O)N[C@H](C(=O)N[C@@H](Cc1ccc(O)cc1)C(N)=O)[C@@H](C)O)C(C)C)[C@@H](C)O [Peptide 120] (H-K([γGlu-γGlu-C20 diacid])CNAATCATQRLANWLVHSSPNFPAILSPTNVGSNTY-NH2; disulfide 2-7; N-terminus assumed) | – | –
– | 1.2 nM | CC[C@H](C)[C@H](NC(=O)[C@H](C)NC(=O)[C@@H]1CCCN1C(=O)[C@H](Cc1ccccc1)NC(=O)[C@H](CC(N)=O)NC(=O)C(C)(C)NC(=O)[C@H](CO)NC(=O)[C@H](CO)NC(=O)[C@H](Cc1c[nH]cn1)NC(=O)[C@@H](NC(=O)[C@H](CC(C)C)NC(=O)[C@H](Cc1ccccc1)NC(=O)[C@H](CC(N)=O)NC(=O)[C@H](C)NC(=O)[C@H](CC(C)C)NC(=O)[C@H](CCCNC(=N)N)NC(=O)[C@H](CCC(N)=O)NC(=O)[C@@H](NC(=O)[C@H](C)NC(=O)[C@@H]1CSSC[C@H](NC(=O)[C@@H](N)CCCCNC(=O)CC[C@H](NC(=O)CC[C@H](NC(=O)CCCCCCCCCCCCCCCCCCC(=O)O)C(=O)O)C(=O)O)C(=O)N[C@@H](CC(N)=O)C(=O)N[C@@H]([C@@H](C)O)C(=O)N[C@@H](C)C(=O)N[C@@H]([C@@H](C)O)C(=O)N1)[C@@H](C)O)C(C)C)C(=O)N[C@@H](CC(C)C)C(=O)N[C@@H](CO)C(=O)N1CCC[C@H]1C(=O)N[C@H](C(=O)N[C@@H](CC(N)=O)C(=O)N[C@H](C(=O)NCC(=O)N[C@@H](CO)C(=O)N[C@@H](CCN)C(=O)N[C@H](C(=O)N[C@@H](Cc1ccc(O)cc1)C(N)=O)[C@@H](C)O)C(C)C)[C@@H](C)O [Peptide 125, K(γE-γE-C20diacid)[CNTATC]ATQRLANFLVHSS(Aib)NFPAILSPTNVGS(Dab)TY-amide] (H-K([γGlu-γGlu-C20 diacid])CNTATCATQRLANFLVHSS[Aib]NFPAILSPTNVGS[Dab]TY-NH2; disulfide 2-7 (inferred)) | – | –

The remaining lines, values behind:

Compound | EC50 [1] | EC50 [2] | Ratio (selectivity hAMYR vs hCTR, ratio of EC50 values at the two receptors) [2] | terminal half-life of amylin in rats [3]
CC[C@H](C)[C@H](NC(=O)[C@@H]1CCCN1C(=O)CNC(=O)[C@](C)(Cc1ccccc1)NC(=O)[C@H](CC(N)=O)NC(=O)[C@H](CC(N)=O)NC(=O)[C@H](CO)NC(=O)[C@H](CO)NC(=O)[C@H](Cc1c[nH]cn1)NC(=O)[C@H](CCCNC(=N)N)NC(=O)[C@H](CC(C)C)NC(=O)[C@H](Cc1ccccc1)NC(=O)[C@H](CC(N)=O)NC(=O)[C@H](C)NC(=O)[C@H](CC(C)C)NC(=O)[C@H](CCCNC(=N)N)NC(=O)[C@H](CCC(N)=O)NC(=O)[C@@H](NC(=O)[C@H](C)NC(=O)[C@@H]1CSSC[C@H](NC(=O)[C@@H](N)CCCCNC(=O)CC[C@H](NC(=O)CCCCCCCCCCCCCCCCC(=O)O)C(=O)O)C(=O)N[C@@H](CC(N)=O)C(=O)N[C@@H]([C@@H](C)O)C(=O)N[C@@H](C)C(=O)N[C@@H]([C@@H](C)O)C(=O)N1)[C@@H](C)O)C(=O)N[C@@H](CC(C)C)C(=O)N1CCC[C@H]1C(=O)N1CCC[C@H]1C(=O)N[C@H](C(=O)N[C@@H](CCC(=O)O)C(=O)N[C@H](C(=O)NCC(=O)N[C@@H](CO)C(=O)N[C@@H](CC(N)=O)C(=O)N[C@H](C(=O)N[C@@H](Cc1ccc(O)cc1)C(N)=O)[C@@H](C)O)C(C)C)[C@@H](C)O [Peptide 16, K(γE-C18diacid)[CNTATC]ATQRLANFLRHSSNN(αMePhe)GPILPPTEVGSNTY-amide] (H-K([γGlu-C18 diacid])CNTATCATQRLANFLRHSSNN[αMeF]GPILPPTEVGSNTY-NH2; disulfide 2-7; N-terminus assumed) | 2.02 nM | – | – | –
CC[C@H](C)[C@H](NC(=O)[C@@H]1CCCN1C(=O)CNC(=O)[C@H](Cc1ccccc1)NC(=O)[C@H](CC(N)=O)NC(=O)C(C)(C)NC(=O)[C@H](CO)NC(=O)[C@H](CO)NC(=O)[C@H](Cc1c[nH]cn1)NC(=O)[C@@H](NC(=O)[C@H](CC(C)C)NC(=O)[C@H](Cc1ccccc1)NC(=O)[C@H](CC(N)=O)NC(=O)[C@H](C)NC(=O)[C@H](CC(C)C)NC(=O)[C@H](CCCNC(=N)N)NC(=O)[C@H](CCC(N)=O)NC(=O)[C@@H](NC(=O)[C@H](C)NC(=O)[C@@H]1CSSC[C@H](NC(=O)[C@@H](N)CCCCNC(=O)CC[C@H](NC(=O)CC[C@H](NC(=O)CCCCCCCCCCCCCCCCC(=O)O)C(=O)O)C(=O)O)C(=O)N[C@@H](CC(N)=O)C(=O)N[C@@H]([C@@H](C)O)C(=O)N[C@@H](C)C(=O)N[C@@H]([C@@H](C)O)C(=O)N1)[C@@H](C)O)C(C)C)C(=O)N[C@@H](CC(C)C)C(=O)N1CCC[C@H]1C(=O)N1CCC[C@H]1C(=O)N[C@H](C(=O)NC(C)(C)C(=O)N[C@H](C(=O)NCC(=O)N[C@@H](CO)C(=O)N[C@@H](CC(N)=O)C(=O)N[C@H](C(=O)N[C@@H](Cc1ccc(O)cc1)C(N)=O)[C@@H](C)O)C(C)C)[C@@H](C)O [Peptide 89, K(γE-γE-C18diacid)[CNTATC]ATQRLANFLVHSS(Aib)NFGPILPPT(Aib)VGSNTY-amide] (H-K([γGlu-γGlu-C18 diacid])CNTATCATQRLANFLVHSS[Aib]NFGPILPPT[Aib]VGSNTY-NH2; disulfide 2-7; N-terminus assumed) | – | – | 18 | –
amylin (KCNTATCATQRLANFLVHSSNNFGAILSSTNVGSNTY; not fully specified (C-terminus, bridges); cysteine pairing not given here; UniProt P10997 34-70, looked up) [native peptide hormone of which pramlintide is a synthetic analogue] | – | – | – | around 13 minutes
